# Experimental data from the supplement of paper PMC10307832.
# Compound: Cc1ccc(NC(=O)c2ccc(CN3CCN(C)CC3)cc2)cc1Nc1nc(-c2cccnc2)cs1 [Masitinib] + CC(C)C[C@H](NC(=O)[C@H](Cc1ccccc1)NC(=O)c1cnccn1)B(O)O [Bortezomib] (partner 0.002 µM)
# Test: relative viability (nuclei count vs DMSO), 5 days (fraction); higher = more cells survive
# Conditions: first compound 0.01 µM
# Procedure, shortened: (§1)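 A single step with final 0.05% Triton X-100, 1% formaldehyde and 1 ug/ml Hoechst fixed the cells and stained nuclei 5 days after treatment. Lung cancer cell lines in 1536-well plates had been treated by pin tool the day after seeding with one drug alone or a fixed anchor-drug dose plus five library-drug doses (not always all listed) in √10 steps, and nuclei were counted on 4× images. Relative viability is the ratio of nuclei in treated wells to nuclei in vehicle wells, taken as the median of duplicate plates.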
row,Cell Line,relative viability
1,NCI-H3122,1.09
2,HOP-62,0.573
3,LXF-289,0.876
4,BEN,1.15
5,HARA,1.05
6,HCC-78,0.49
7,NCI-H441,0.777
8,LCLC-97TM1,0.61
9,NCI-H2023,0.734
10,NCI-H460,1.03
11,NCI-H520,0.598
12,NCI-H2405,0.929
13,SW 1573,1.08
14,201T,0.918
15,NCI-H1975,0.378
16,HCC-827,0.842
17,NCI-H2347,0.829
18,NCI-H1355,0.949
19,NCI-H650,0.82
20,CAL-12T,0.852
21,NCI-H1666,0.71
22,EPLC-272H,0.97
23,NCI-H23,1.06
24,NCI-H1437,0.468
25,NCI-H322M,1.23
26,NCI-H2085,0.87
27,HCC-15,0.714
28,PC-3 [JPC-3],0.833
29,LC-2-ad,0.816

# Same assay, conditions: first compound 0.03162 µM
row,Cell Line,relative viability
1,NCI-H3122,0.997
2,HOP-62,0.598
3,LXF-289,0.97
4,BEN,0.662
5,HARA,1.09
6,HCC-78,0.419
7,NCI-H441,0.451
8,NCI-H2023,0.967
9,A-427,0.977
10,NCI-H460,1
11,NCI-H1755,0.966
12,NCI-H2405,0.878
13,SW 1573,0.979
14,201T,1.09
15,NCI-H1975,0.319
16,HCC-827,1.04

row,Cell Line,relative viability
1,NCI-H2347,1.02
2,NCI-H1355,1.3
3,NCI-H650,0.565
4,CAL-12T,1.05
5,NCI-H1666,0.726
6,EPLC-272H,0.85
7,NCI-H23,1.05
8,NCI-H1915,0.894
9,NCI-H1437,0.637
10,NCI-H322M,1.11
11,NCI-H2085,0.99
12,HCC-15,1.09
13,PC-3 [JPC-3],0.936
14,EKVX,1.04
15,LC-2-ad,0.992

# Same assay, conditions: first compound 0.1 µM
row,Cell Line,relative viability
1,NCI-H3122,1.1
2,HOP-62,0.845
3,LXF-289,0.966
4,BEN,0.874
5,HARA,1.18
6,HCC-78,0.515
7,NCI-H441,0.658
8,LCLC-97TM1,0.749
9,NCI-H2023,0.79
10,NCI-H460,1.2
11,NCI-H1755,0.832
12,NCI-H520,0.629
13,NCI-H2405,0.879
14,SW 1573,1.06
15,201T,0.99
16,NCI-H1975,0.388

row,Cell Line,relative viability
1,HCC-827,1.03
2,NCI-H2347,0.938
3,NCI-H1355,1.02
4,NCI-H650,0.95
5,CAL-12T,1.06
6,NCI-H1666,0.854
7,EPLC-272H,0.917
8,NCI-H23,1.14
9,NCI-H1915,0.805
10,NCI-H1437,0.585
11,NCI-H322M,1.26
12,NCI-H2085,1.03
13,HCC-15,0.847
14,PC-3 [JPC-3],0.784
15,EKVX,1.05
16,LC-2-ad,0.926

# Same assay, conditions: first compound 0.3162 µM
row,Cell Line,relative viability
1,NCI-H3122,1.03
2,HOP-62,0.799
3,LXF-289,1.06
4,BEN,0.666
5,HARA,1.17
6,HCC-78,0.406
7,NCI-H441,0.673
8,LCLC-97TM1,0.741
9,NCI-H2023,0.862
10,A-427,0.99
11,NCI-H460,1.15
12,NCI-H1755,0.907
13,NCI-H520,0.686
14,NCI-H2405,0.944
15,SW 1573,0.894
16,201T,1.09
17,NCI-H1975,0.319

row,Cell Line,relative viability
1,HCC-827,1.09
2,NCI-H2347,0.899
3,NCI-H1355,1.02
4,NCI-H650,1.08
5,CAL-12T,1.07
6,NCI-H1666,0.555
7,EPLC-272H,1.16
8,NCI-H23,1.03
9,NCI-H1915,1.04
10,NCI-H1437,0.577
11,NCI-H322M,1.21
12,NCI-H2085,1.27
13,HCC-15,1.21
14,PC-3 [JPC-3],0.878
15,EKVX,0.444
16,LC-2-ad,0.996

# Same assay, conditions: first compound 1 µM
row,Cell Line,relative viability
1,NCI-H3122,0.984
2,HOP-62,0.769
3,LXF-289,0.992
4,BEN,0.831
5,HARA,1.04
6,HCC-78,0.394
7,NCI-H441,0.448
8,LCLC-97TM1,0.83
9,NCI-H2023,0.879
10,A-427,1.06
11,NCI-H460,1.28
12,NCI-H1755,0.816
13,NCI-H520,0.774
14,NCI-H2405,0.948
15,SW 1573,1
16,201T,1.07
17,NCI-H1975,0.373

row,Cell Line,relative viability
1,HCC-827,1.08
2,NCI-H2347,0.903
3,NCI-H1355,1.06
4,NCI-H650,0.635
5,CAL-12T,0.713
6,NCI-H1666,0.612
7,EPLC-272H,0.839
8,NCI-H23,1.11
9,NCI-H1915,0.926
10,NCI-H1437,0.438
11,NCI-H322M,1.17
12,NCI-H2085,1.06
13,HCC-15,1.04
14,PC-3 [JPC-3],0.841
15,EKVX,0.671
16,LC-2-ad,0.93

# Compound: Cc1ccc(NC(=O)c2ccc(CN3CCN(C)CC3)cc2)cc1Nc1nc(-c2cccnc2)cs1 [Masitinib] + Cc1nc(Nc2ncc(C(=O)Nc3c(C)cccc3Cl)s2)cc(N2CCN(CCO)CC2)n1 [Dasatinib] (partner 0.075 µM)
# Test: as above
# Conditions: first compound 0.01 µM
# Procedure, shortened: as §1
row,Cell Line,relative viability
1,NCI-H3122,0.512
2,HOP-62,0.604
3,LXF-289,0.223
4,BEN,0.341
5,HCC-78,0.468
6,NCI-H441,0.846
7,NCI-H2023,0.551
8,NCI-H460,0.392
9,NCI-H520,0.245
10,NCI-H2405,0.2
11,SW 1573,0.452
12,201T,0.53
13,NCI-H1975,0.427
14,HCC-827,0.269
15,NCI-H2347,0.325
16,NCI-H1355,0.69
17,NCI-H650,0.516
18,CAL-12T,0.452
19,EPLC-272H,0.509
20,NCI-H23,0.713
21,NCI-H1437,0.457
22,NCI-H322M,0.259
23,NCI-H2085,0.215
24,HCC-15,0.516
25,PC-3 [JPC-3],0.984
26,EKVX,0.557
27,LC-2-ad,0.47

# Same assay, conditions: first compound 0.03162 µM
row,Cell Line,relative viability
1,NCI-H3122,0.724
2,HOP-62,0.632
3,LXF-289,0.206
4,HARA,0.289
5,HCC-78,0.312
6,NCI-H441,0.623
7,LCLC-97TM1,0.961
8,NCI-H2023,0.602
9,A-427,0.726
10,NCI-H460,0.447
11,NCI-H1755,0.455
12,NCI-H520,0.225
13,NCI-H2405,0.214
14,SW 1573,0.463
15,201T,0.594
16,NCI-H1975,0.403

row,Cell Line,relative viability
1,HCC-827,0.286
2,NCI-H2347,0.293
3,NCI-H1355,0.485
4,NCI-H650,0.429
5,CAL-12T,0.381
6,NCI-H1666,0.713
7,EPLC-272H,0.416
8,NCI-H23,0.69
9,NCI-H1915,0.214
10,NCI-H1437,0.396
11,NCI-H322M,0.286
12,NCI-H2085,0.249
13,HCC-15,0.617
14,PC-3 [JPC-3],0.839
15,EKVX,0.387
16,LC-2-ad,0.587

# Same assay, conditions: first compound 0.1 µM
row,Cell Line,relative viability
1,NCI-H3122,0.61
2,HOP-62,0.785
3,LXF-289,0.238
4,BEN,0.271
5,HARA,0.283
6,HCC-78,0.392
7,NCI-H441,0.723
8,LCLC-97TM1,0.903
9,NCI-H2023,0.543
10,NCI-H460,0.561
11,NCI-H1755,0.451
12,NCI-H520,0.247
13,NCI-H2405,0.213
14,SW 1573,0.526
15,201T,0.521
16,NCI-H1975,0.427

row,Cell Line,relative viability
1,HCC-827,0.275
2,NCI-H2347,0.274
3,NCI-H1355,0.701
4,NCI-H650,0.482
5,CAL-12T,0.34
6,NCI-H1666,0.858
7,EPLC-272H,0.337
8,NCI-H23,0.786
9,NCI-H1437,0.454
10,NCI-H322M,0.236
11,NCI-H2085,0.242
12,HCC-15,0.68
13,PC-3 [JPC-3],0.973
14,EKVX,0.535
15,LC-2-ad,0.639

# Same assay, conditions: first compound 0.3162 µM
row,Cell Line,relative viability
1,NCI-H3122,0.615
2,HOP-62,0.634
3,LXF-289,0.202
4,BEN,0.308
5,HARA,0.152
6,HCC-78,0.468
7,NCI-H441,0.659
8,LCLC-97TM1,0.943
9,NCI-H2023,0.395
10,A-427,0.802
11,NCI-H460,0.344
12,NCI-H1755,0.422
13,NCI-H520,0.292
14,NCI-H2405,0.238
15,SW 1573,0.52
16,201T,0.42

row,Cell Line,relative viability
1,HCC-827,0.314
2,NCI-H2347,0.279
3,NCI-H1355,0.436
4,NCI-H650,0.313
5,CAL-12T,0.306
6,NCI-H1666,0.818
7,EPLC-272H,0.373
8,NCI-H23,0.859
9,NCI-H1915,0.319
10,NCI-H1437,0.527
11,NCI-H322M,0.236
12,NCI-H2085,0.278
13,HCC-15,0.512
14,PC-3 [JPC-3],0.927
15,EKVX,0.464
16,LC-2-ad,0.523

# Same assay, conditions: first compound 1 µM
row,Cell Line,relative viability
1,NCI-H3122,0.916
2,HOP-62,0.606
3,LXF-289,0.207
4,BEN,0.281
5,HARA,0.258
6,HCC-78,0.366
7,NCI-H441,0.511
8,LCLC-97TM1,0.84
9,NCI-H2023,0.513
10,A-427,0.695
11,NCI-H460,0.485
12,NCI-H1755,0.383
13,NCI-H520,0.215
14,NCI-H2405,0.193
15,SW 1573,0.476
16,201T,0.491
17,NCI-H1975,0.279

row,Cell Line,relative viability
1,HCC-827,0.293
2,NCI-H2347,0.262
3,NCI-H1355,0.69
4,NCI-H650,0.415
5,CAL-12T,0.374
6,NCI-H1666,0.817
7,EPLC-272H,0.242
8,NCI-H23,0.805
9,NCI-H1915,0.276
10,NCI-H1437,0.387
11,NCI-H322M,0.253
12,NCI-H2085,0.215
13,HCC-15,0.59
14,PC-3 [JPC-3],0.954
15,EKVX,0.41
16,LC-2-ad,0.554

# Compound: CC1=CC(=CC=C1)NC2=NC(=CS2)C3=CC=NC=C3 + Nc1nc2[nH]cc(CCc3ccc(C(=O)N[C@@H](CCC(=O)O)C(=O)O)cc3)c2c(=O)[nH]1 [Pemetrexed] (partner 0.2 µM)
# Test: as above
# Conditions: first compound 0.08 µM
# Procedure, shortened: as §1
row,Cell Line,relative viability
1,NCI-H3122,0.202
2,HOP-62,0.325
3,LXF-289,0.851
4,BEN,0.685
5,HARA,0.267
